Reference: publication PMC11855827, “High-Throughput Screening of Five Compound Libraries for Anthelmintic Activity and Toxicity Leads to the Discovery of Two Flavonoid Compounds” (International Journal of Molecular Sciences, 2025)
Values joined by “and” are separate entries in the source; they are usually repeats but may differ in a detail not shown here. Identical values can stand only once.

Tested on: C. elegans
Conditions: Table S2, C. elegans SS assay, 110 μM, averages of 4 data points

Row | Structure (SMILES) | Percentage of motility inhibition 0 h [%] | Percentage of motility inhibition 24 h
1 | CC1(C)CCC[C@]2(C)[C@H]3CCO[C@]3(C)CC[C@@H]12 [Ambroxide] | 8 | 14%
2 | NCC[C@H](O)C(=O)N[C@@H]1C[C@H](N)[C@@H](O[C@H]2O[C@H](CN)[C@@H](O)[C@H](O)[C@H]2O)[C@H](O)[C@H]1O[C@H]1O[C@H](CO)[C@@H](O)[C@H](N)[C@H]1O.O=S(=O)(O)O.O=S(=O)(O)O [Amikacin (sulfate)] | 0 | 3%
3 | CC1(C)[C@@H](O[C@H]2O[C@H](C(=O)O)[C@@H](O)[C@H](O)[C@H]2O[C@@H]2O[C@H](C(=O)O)[C@@H](O)[C@H](O)[C@H]2O)CC[C@]2(C)[C@H]3C(=O)C=C4[C@@H]5C[C@@](C)(C(=O)O)CC[C@]5(C)CC[C@@]4(C)[C@]3(C)CC[C@@H]12 [Ammonium glycyrrhizinate] | 20 | 11%
4 | CCC(C)(C)c1ccc(CC(C)CN2C[C@@H](C)O[C@@H](C)C2)cc1.Cl (stereo partly shown) [Amorolfine (hydrochloride)] | 20 | 9%
5 | CC1(C)S[C@@H]2[C@H](NC(=O)[C@H](N)c3ccc(O)cc3)C(=O)N2[C@H]1C(=O)[O-].[Na+] [Amoxicillin (sodium)] | 29 | 10%
6 | CC1(C)S[C@@H]2[C@H](NC(=O)[C@H](N)c3ccc(O)cc3)C(=O)N2[C@H]1C(=O)O.O.O.O [Amoxicillin (trihydrate)] | 27 | 0%
7 | CC1(C)S[C@@H]2[C@H](NC(=O)[C@H](N)c3ccccc3)C(=O)N2[C@H]1C(=O)[O-].[Na+] [Ampicillin (sodium)] | 24 | 1%
8 | CCCc1ncc(C[n+]2ccccc2C)c(N)n1.Cl.[Cl-] [Amprolium (hydrochloride)] | 12 | 0%
9 | COc1ccc2c(c1OC)C(OC)N(C)c1c-2ccc2cc3c(cc12)OCO3 (stereo not shown) [Angoline] | 0 | 0%
10 | Br.CN1[C@H]2C[C@H](OC(=O)[C@H](CO)c3ccccc3)C[C@@H]1[C@@H](O)C2 [Anisodamine (hydrobromide)] | 0 | 1%
11 | CN1[C@H]2C[C@H](OC(=O)[C@H](CO)c3ccccc3)C[C@@H]1[C@@H](O)C2 [Anisodamine] | 10 | 5%
12 | COc1ccc(C[C@H]2NC[C@H](O)[C@H]2OC(C)=O)cc1 [Anisomycin] | 10 | 44%
13 | CC(C)(C)OC(=O)N1CCC[C@H]1c1nc(C(=O)O)cs1 [Antibiotic‐5d] | 0 | 0%
14 | O=C1CC[C@H](NC(=O)Cc2ccccc2)C(=O)N1 [Antineoplaston A10] | 0 | 0%
15 | O=c1cc(-c2ccc(O)cc2)oc2cc(O[C@@H]3O[C@H](CO)[C@@H](O)[C@H](O)[C@H]3O)cc(O)c12 [Apigenin 7‐glucoside] | 10 | 40%
16 | CC1OC(OC2C(Oc3cc(O)c4c(=O)cc(-c5ccc(O)cc5)oc4c3)OC(COC3OC(CO)C(O)C(O)C3O)C(O)C2O)C(O)C(O)C1O (stereo not shown) [Apigenin‐7‐O‐(2G‐rhamnosyl)gentiobioside] | 10 | 0%
17 | O=C(O)[C@H]1O[C@@H](Oc2cc(O)c3c(=O)cc(-c4ccc(O)cc4)oc3c2)[C@H](O)[C@@H](O)[C@@H]1O [Apigenin‐7‐glucuronide] | 23 | 3%
18 | C=C(C(=O)OC1C[C@@H]2[C@H]3O[C@H]3[C@H](C1)N2C)c1ccccc1 (stereo partly shown) [Aposcopolamine] | 14 | 10%
19 | CN[C@@H]1[C@@H](O[C@H]2O[C@H](CO)[C@@H](N)[C@H](O)[C@H]2O)OC2C[C@@H](N)[C@@H](O[C@H]3[C@H](O)[C@@H](O)[C@H](N)C[C@@H]3N)OC2[C@@H]1O (stereo partly shown) [Apramycin (sulfate)] | 29 | 2%
20 | CC1(C)CC[C@]2(C(=O)O[C@@H]3O[C@H](CO)[C@@H](O)[C@H](O)[C@H]3O)CC[C@]3(C)C(=CC[C@@H]4[C@@]5(C)CC[C@H](O[C@@H]6O[C@H](C(=O)O)[C@@H](O[C@@H]7O[C@@H](CO)[C@H](O)[C@H]7O)[C@H](O)[C@H]6O)C(C)(C)[C@@H]5CC[C@]43C)[C@@H]2C1 [Araloside A] | 6 | 0%
21 | CCOC(=O)c1c(CSc2ccccc2)n(C)c2cc(Br)c(O)c(CN(C)C)c12.Cl [Arbidol (hydrochloride)] | 33 | 3%
22 | CC1(C)[C@@H](O[C@@H]2OC[C@H](O[C@@H]3O[C@H](CO)[C@@H](O)[C@H](O)[C@H]3O[C@@H]3OC[C@@H](O)[C@H](O)[C@H]3O)[C@H](O)[C@H]2O[C@@H]2O[C@H](CO)[C@@H](O)[C@H](O)[C@H]2O)CC[C@]2(C)[C@H]3CC[C@]45OC[C@@]6(CC[C@](C)(C=O)C[C@H]64)[C@H](O)C[C@@]5(C)[C@]3(C)CC[C@@H]12 [Ardisiacrispin A] | 22 | 0%
23 | CN1CCC=C(C(=O)O)C1.Cl [Arecaidine (hydrochloride)] | 7 | 6%
24 | CN1CCC=C(C(=O)O)C1 [Arecaidine] | 16 | 0%
25 | COc1cccc2c1cc([N+](=O)[O-])c1c(C(=O)O)cc3c(c12)OCO3 [Aristolochic acid A] | – | 22% and 11%
26 | CC1(C)CC[C@]2(C(=O)O[C@@H]3O[C@H](CO)[C@@H](O)[C@H](O)[C@H]3O)CC[C@]3(C)C(=CC[C@@H]4[C@@]5(C)C[C@@H](O)[C@H](O)C(C)(C)[C@@H]5CC[C@]43C)[C@@H]2[C@@H]1O [Arjunetin] | 0 | 18%
27 | COc1cc2c(cc1OC)C(Cc1ccc(O)cc1)N(C)CC2 (stereo not shown) [Armepavine] | 0 | 12%
28 | CC(=O)c1cc2c(CO)cc(O)cc2oc1=O [Armillarisin A] | 0 | 4%
